From patent US20230279379A1, “METHODS AND MICROFLUIDIC DEVICE FOR PRODUCING EXTRACELLULAR VESICLES” (THE BOARD OF TRUSTEES OF THE UNIVERSITY OF ILLINOIS, priority 2022, published 2023)

Tests used:
Type in all cases: cell-based
[1] = tested on: CD63-K2S^+ MVBs in D1 mouse MSCs; assay: Intracellular CD63-K2S+ MVB transport by TIRF microscopy; details: Arp2/3 inhibition by CK869
Source text: Lentiviral-Mediated Expression of CD63 Fused with Fluorescent Proteins. Katushka2S (far-red fluorescent protein) was fused with CD63 in a lentiviral expression vector (CD63-K2S vector) and expressed in D1 MSCs according to known methods. The sequence for pHLuorin2 (pH-sensitive green fluorescent protein) was synthesized by GenScript and exchanged with the Katushka2S in the same vector using restriction enzyme cloning. The resulting CD63-pHLuorin2 lentiviral vector was transduced in D1 MSCs in a similar method as the CD63-K2S vector. Cells were selected by treatment with 5 μg/mL puromycin over 3 days and confirmed to express fluorescent signal versus non-transduced cells.
Total Internal Reflection Fluorescence (TIRF) Imaging of Cells on Substrates. To covalently bond crosslinked PEG-DA hydrogel to a thin glass surface, acrylate groups were attached to glass coverslips by silanization. […]
CD63-Katushka2S Data Analysis. […] Intracellular bodies were determined using Gaussian smoothing and local background intensity thresholding (with automatically determined thresholds) to detect surfaces followed by tracking their position (x, y) over time (t). […] Multivescular body (MVB) area was computed for each time t and reported as the mean area across total track time T. Tracks were then analyzed via a custom MATLAB (R2017b, MathWorks) program. Track MSD was calculated as […]

[2] = tested on: membrane-cytoskeleton attachment in MSCs; assay: Force for membrane tether formation by AFM; details: CK869 treatment for 2 hours; within 4 hours of cell adhesion
Protocol: Measurement of Force for Membrane Tether Formation by Atomic Force Microscopy (AFM). Membrane tethering force was measured by using 3D-BIO AFM (Asylum Research, Oxford Instruments) with TR400PSA cantilevers (OTR4; spring constant=30 pN/nm). Indentation depth for each measurement was 4 μm with a velocity of 2 μm/s, and the force curve for each measurement was recorded by the AFM software (AR14). For each cell, 25-50 force curves were analyzed. In force mode, the piezotranducer (PZT) was set to drive the cantilever to approach, touch, make an indentation, and retract over a predefined distance in the optical axis perpendicular to the cell surface. The force curve was generated from the recorded vertical-axis movement of the PZT and the deflection of the cantilever with a known dimension and a spring constant. In the force curve representing the retraction of the cantilever from a cell, a sudden release of force occurred at the rupture of a membrane tether was quantified via a custom MATLAB program.

F-actin in MSCs = assay: Confocal imaging of F-actin in cells on hydrogels; details: CK869 for 2 hours; cell adhesion for 4 hours
Protocol: Sample Preparation for Imaging of F-Actin in Cells on Hydrogels. To prepare samples for F-actin imaging, glass bottom dishes (No 0., 35 mm; MatTek) were silanized, and a thin layer of PEG-DA hydrogel with varied elasticity was formed as described above. After cell seeding on hydrogels and culturing cells in the presence of DMSO or CK869, cells were permeabilized with 0.0015% saponin (Sigma) in a cytoskeleton buffer (10 mM MES, pH 6.0, 150 mM NaCl, 5 mM EGTA, 5 mM glucose, and 5 mM MgCl2) for 4 minutes at room temperature. The samples were then washed with the cytoskeleton buffer 3 times and fixed with 4% paraformaldehyde in the cytoskeleton buffer for 20 minutes at room temperature. After washing 3 times with the cytoskeleton buffer, the samples were reduced in 0.1% sodium borohydride in PBS for 20 minutes at room temperature. To label F-actin in cells, the samples were stained with a fluorescent stain sold under the tradename ALEXA FLUOR® 488 phalloidin (1:1000; Cayman) for confocal imaging or ALEXA FLUORO 647 phalloidin (1:10000; Cayman) for super-resolution imaging in PBS with 3% BSA for 40 minutes at room temperature. The samples were washed 3 times with PBS prior to imaging.
Confocal Imaging of F-actin. […] A mean projection image was created from each confocal stack, and average intensity ALEXA FLUOR® 488 phalloidin per cell was analyzed by ImageJ (NIH). […]

Primary human MSCs = assay: EV secretion per cell from MSCs on hydrogel substrates, nanoparticle tracking analysis; details: 5 μM CK869, ~4 hour adhesion, EV collection after 24 hours

Question: With COc1ccc(N2C(=O)CSC2c2cccc(Br)c2)c(OC)c1 (stereo not drawn) [CK869] as the compound, how does the “transport exponent α” value [1] read?
Answer: Its value is roughly 0.5.

Question: And the “MVB transport (tracks, <MSD> vs t, D0.4s)” value ([1]; soft and stiff substrate)?
Answer: The value was “significantly enhanced transport on either substrate”.

Question: And the “force of membrane tether formation” value [2]?
Answer: The value was “slightly decreased tethering on the soft hydrogel”.

Question: What about the “mean intensity of phalloidin-labelled F-actin signal per cell” value (F-actin in MSCs) of the same compound?
Answer: Its value is “decrease the signal intensity on both substrates”.

Question: What about the “EV secretion on the soft hydrogel” value (Primary human MSCs; soft hydrogel) of the same compound?
Answer: Its value is “to a lesser but significant extent”.

Question: And the “EV secretion on the stiff hydrogel” value (Primary human MSCs; stiff hydrogel)?
Answer: The value was “increased EV secretion on the stiff hydrogel”.
